Measured values: patent publication EP0345068B1, “Agonist of gamma-aminobutyric acid” (JOHN WYETH & BROTHER LIMITED, priority 1988, dated 1989)

Assays:
GABA autoreceptor [1] = test: Procedure 1: inhibition of potassium-evoked [3H]-GABA release from rat cerebral cortex slices; format: cell-based; conditions: for GABA autoreceptor pD2 values: inhibition of 25 mM potassium-evoked [3H]-GABA release, rat cortex slices in vitro
Description: (§1) The following test procedures were used to measure activity at (a) GABA autoreceptors and GABAB receptors by inhibition of potassium-evoked GABA and noradrenalin release from rat cortex in vitro (Procedure 1); and (b) GABAA receptors by enhancement of [3H]-flunitrazepam binding in rat cortex in vitro (Procedure 2):
(§2) Slices (0.25 x 0.25 x 2.0 mm) of rat cerebral cortex are prepared using a McIlwain tissue chopper. The slices are incubated in Krebs-Henseleit solution containing [³H]-GABA (10⁻⁷M) and [¹⁴C]-noradrenaline (10⁻⁷M) in the presence of amino-oxyacetic acid (AOAA) (10⁻⁵M), pargyline (10⁻⁶M) and ascorbic acid (10⁻⁴M), for 20 minutes at 37°C, rinsed with 5 ml aliquots of Krebs-Henseleit solution and transferred to 10 superfusion chambers (volume 300»l). The slices are continuously superfused with Krebs-Henseleit solution (0.4 ml min⁻¹) containing AOAA (10⁻⁵M) and fractions of the superfusate collected every 4 minutes. Transmitter release is induced by 4 minute exposure to a Krebs-Henseleit solution containing 25 mM potassium (with concomitant reduction in sodium to maintain osmolarity) after 68 (S₁) and 92 (S₂) minutes of superfusion. The compound under study is added to the superfusing medium 20 minutes prior to the second potassium stimulation. The residual radioactivity in the slices at the end of the experiment together with that in the superfusate fractions is measured by liquid scintillation counting using a dual label programme for tritium and carbon-14. Calculations: The amount of radioactivity (either tritium or carbon-14) in each fraction is expressed as a percentage of the respective total radioactivity in the tissue at the start of the respective collection period. The amount of radioactivity released above basal by the increased potassium is calculated and the ratio S2/S1 obtained. The S2/S1 ratio from drug-treated slices is expressed as a percentage of the control S2/S1 ratio.

GABAB receptors = target: T1, GABAB receptors (Rattus norvegicus, UniProt Q9Z0U4); test: Procedure 1: inhibition of potassium-evoked [14C]-noradrenaline release from rat cerebral cortex slices; format: cell-based; conditions: for inhibition at 10 µM: 10^-5M, potassium-evoked noradrenaline release, rat cortex slices, failure to inhibit indicates no GABAB agonist activity
T1 construct: Slices (0.25 x 0.25 x 2.0 mm) of rat cerebral cortex; from tissue; host or cells: rat cerebral cortex slices
Description: as §1
as §2, with “ratio. For compounds achieving inhibition of 30% or more pD₂ values are calculated from plots of inhibition of release versus concentration of drug.” for “ratio.”

GABAA receptors = test: Procedure 2: enhancement of [3H]-flunitrazepam binding in rat cortex membranes; conditions: for Enhancement of [3H]-flunitrazepam binding: 20nM [3H]-flunitrazepam, rat cortex membranes, 30 minutes at 37°C
Description: as §1
Cortices from six or more rats are excised and homogenised in 50 volumes (volume/weight) 50mM Tris buffer (pH 7.4 at 37°C) using a Polytron homogeniser on speed 5 for 30 seconds. Tissue is kept at O°C throughout the procedure. The homogenate is centrifuged at 40,000 x g for 15 minutes and the pellet resuspended (Polytron 5, 10 sec.) in 50 volumes (original weight) of Tris buffer. Centrifugation and resuspension is repeated followed by incubation at 37°C for 10 minutes. The homogenate is centrifuged (40,000 x g, 15 min), resuspended in 10 volumes (original weight) Tris and stored below -20°C for more than 24 hours.
On the day of the experiment, membranes are thawed at 37°C and made up to 20 volumes (original weight) with Tris Krebs (20mM, see below). The membranes are homogenised (Polytron 5, 30 sec), incubated at 37°C for 15 minutes and centrifuged at 20,000 x g for 10 minutes. This wash and resuspension is repeated two more times with the final pellet resuspended in 100 volumes (original weight) Tris Krebs ready for use.
The test compound (50»l) and 20nM (final concentration) [³H]-flunitrazepam (50»l) are dispensed in triplicate. The reaction is started by the addition of 900»l of membrane preparation. After a 30 minute incubation at 37°C the reaction is stopped by filtration through Whatman GF/B filters under reduced pressure using a Brandell Cell Harvester, with two 7.5 ml filter washings. The radioactivity retained on the filters is measured by liquid scintillation counting. Tris Krebs composition: NaCl-136mM, KCl-5mM, MgSO₄-2mM, KH₂PO₄-2mM, CaCl₂-2mM, Tris buffer (pH 7.4 at 37°C)-20mM, ascorbic acid-lmM, disodium ethylenediamine tetraacetic acid-lmM.
Calculations: Results are calculated as follows: [formula]

GABA autoreceptor [2] = test: Procedure 3: effect on a GABA synapse in vivo, caudate-evoked synaptic inhibition of nigral neurones, iontophoretic ejection; set-up: species or system rat; conditions: anaesthetized male albino rats; ejected iontophoretically in the vicinity of nigral neurones; action reversible
Description: The compounds were also tested for their effect on a GABA synapse in vivo in the following procedure:
(§3) Experiments were performed on male albino rats (240-280g) lightly anaesthetized with urethane (1.2-1.4 g/kg i.p.) or Halothane (0.7-1.0% in 0₂). The animal's temperature was maintained between 36-38°C via a thermostatically controlled heating blanket.
(§4) The caudate nucleus and substantia nigra were approached dorsally after exposing the overlying cortex. Pulsations of the brain and cerebral oedema were minimised by allowing cerebral spinal fluid to leak from a cisternal puncture. The exposed cortex was bathed in warm liquid paraffin throughout the experiment. A coaxial bipolar stimulating electrode (tip separation 0.25mm) was positioned stereotaxically in the caudate nucleus such that the tip of the electrode corresponded to the area delineated by the co-ordinates L 2.5; A 8.5-95; D 5. (Paxinos and Watson 1986). […]
(§5) Extracellular recordings were obtained from single neurones in the ipsilateral substantia nigra via either the centre barrel (3.5M NaCl) of a multibarrelled microelectrode or a single barrelled electrode (3.5M NaCl), attached to but protruding 10-20 » beyond, a multibarrelled electrode. […] Effects of agonist drugs on the GABA autoreceptor could be measured as an attenuation of the synaptic inhibition evoked by stimulation of the caudate. […]

[3] = test system: postsynaptic GABAA receptors; test: Procedure 3: drug ejected onto nigral neurones in vivo, test of postsynaptic GABAA receptor effect; set-up: species or system rat; conditions: anaesthetized male albino rats; ejected iontophoretically in the vicinity of nigral neurones
Description: as §3, §4, §5

T1 sequence (Q9Z0U4 20-960): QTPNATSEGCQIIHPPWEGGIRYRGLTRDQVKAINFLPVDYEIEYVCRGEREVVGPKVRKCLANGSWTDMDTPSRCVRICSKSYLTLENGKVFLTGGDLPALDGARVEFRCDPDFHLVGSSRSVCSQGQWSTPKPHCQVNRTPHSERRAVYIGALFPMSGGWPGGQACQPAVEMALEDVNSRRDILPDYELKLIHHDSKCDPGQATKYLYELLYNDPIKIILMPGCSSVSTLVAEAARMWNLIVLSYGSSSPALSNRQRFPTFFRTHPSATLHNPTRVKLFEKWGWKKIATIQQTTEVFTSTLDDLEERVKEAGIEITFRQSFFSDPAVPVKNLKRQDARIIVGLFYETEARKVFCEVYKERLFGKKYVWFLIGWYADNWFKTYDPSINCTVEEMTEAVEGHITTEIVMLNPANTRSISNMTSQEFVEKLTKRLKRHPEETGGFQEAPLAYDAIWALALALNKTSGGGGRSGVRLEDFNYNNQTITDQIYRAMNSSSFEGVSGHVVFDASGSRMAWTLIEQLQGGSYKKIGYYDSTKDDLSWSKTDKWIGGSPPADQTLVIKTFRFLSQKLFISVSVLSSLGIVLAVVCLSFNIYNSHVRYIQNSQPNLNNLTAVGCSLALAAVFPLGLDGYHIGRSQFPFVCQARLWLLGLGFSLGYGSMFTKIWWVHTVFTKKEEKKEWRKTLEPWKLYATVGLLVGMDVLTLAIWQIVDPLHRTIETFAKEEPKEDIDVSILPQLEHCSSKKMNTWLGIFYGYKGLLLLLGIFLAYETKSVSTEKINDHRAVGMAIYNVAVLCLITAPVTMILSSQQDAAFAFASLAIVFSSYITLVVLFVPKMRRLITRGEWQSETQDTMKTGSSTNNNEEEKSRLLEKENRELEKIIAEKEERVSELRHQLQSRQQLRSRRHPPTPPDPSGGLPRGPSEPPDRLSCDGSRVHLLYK
T1 sequence (O88871 41-940 partner): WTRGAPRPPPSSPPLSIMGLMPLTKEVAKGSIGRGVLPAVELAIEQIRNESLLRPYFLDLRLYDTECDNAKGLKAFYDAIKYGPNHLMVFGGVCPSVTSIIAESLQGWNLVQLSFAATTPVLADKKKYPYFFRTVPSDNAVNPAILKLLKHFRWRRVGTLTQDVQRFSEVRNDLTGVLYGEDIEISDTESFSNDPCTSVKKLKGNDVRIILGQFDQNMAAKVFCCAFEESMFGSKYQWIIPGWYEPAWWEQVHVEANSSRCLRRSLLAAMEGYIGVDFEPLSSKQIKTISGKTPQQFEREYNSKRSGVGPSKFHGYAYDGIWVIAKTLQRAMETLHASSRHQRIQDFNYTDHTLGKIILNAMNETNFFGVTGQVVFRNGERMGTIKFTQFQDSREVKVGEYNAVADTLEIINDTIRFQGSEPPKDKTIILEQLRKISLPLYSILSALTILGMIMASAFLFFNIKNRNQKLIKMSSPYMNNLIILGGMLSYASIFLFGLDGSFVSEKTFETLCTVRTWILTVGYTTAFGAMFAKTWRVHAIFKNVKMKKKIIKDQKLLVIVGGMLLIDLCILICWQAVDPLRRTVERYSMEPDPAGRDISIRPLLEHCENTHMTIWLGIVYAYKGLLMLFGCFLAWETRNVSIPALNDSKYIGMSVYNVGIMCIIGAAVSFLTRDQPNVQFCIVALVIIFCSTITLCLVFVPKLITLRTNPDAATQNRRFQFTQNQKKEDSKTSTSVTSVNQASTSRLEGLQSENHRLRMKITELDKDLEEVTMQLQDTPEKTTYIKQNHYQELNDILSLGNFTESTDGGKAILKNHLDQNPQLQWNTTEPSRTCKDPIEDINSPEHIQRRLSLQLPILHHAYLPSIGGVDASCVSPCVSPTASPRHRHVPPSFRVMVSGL

inhibition at 10 µM (GABAB receptors) | Enhancement of [3H]-flunitrazepam binding (GABAA receptors) | activity at GABAB sites in vitro (GABAB receptors; in vitro) | activity at GABAA sites in vitro (GABAA receptors; in vitro) | SMILES | GABA autoreceptor pD2 values (GABA autoreceptor [1]) | synaptically-evoked, GABA-mediated inhibition in the substantia nigra (GABA autoreceptor [2]) | effect on postsynaptic GABAA receptors [3] | activity at the GABA autoreceptor (GABA autoreceptor [1]; in vitro)
0% | 0 | – | – | O=C(O)CCCN(Cc1ccc(Cl)cc1)Cc1ccc(Cl)cc1 [Example 2, 4-[N,N-Bis-(4-Chlorobenzyl)amino]butyric acid] | 7.0 | – | – | –
0% | 0 | – | – | NC(=O)CCCN(Cc1ccc(Cl)cc1)Cc1ccc(Cl)cc1 [Example 3, 4-[N,N-Bis-(4-chlorobenzyl)amino]butyramide] | 6.6 | – | – | –
> 20% | 0 | – | – | NC(=O)CCCN(Cc1ccccc1)Cc1ccccc1 [Example 4, 4-(N,N-Dibenzylamino)butyramide] | 7.0 | – | – | –
20% | 0 | – | – | O=C(O)CCCN(Cc1ccccc1)Cc1ccccc1 [Example 5, 4-(N,N-Dibenzylamino)butyric acid] | 7.1 | almost abolished | without affecting | –
10% | 0 | – | – | Cc1ccc(CN(CCCC(=O)O)Cc2ccc(C)cc2)cc1 [Example 8, 4-[N,N-Bis-(4-methylbenzyl)amino]butyric acid] | 7.4 | – | – | –
0% | 0 | – | – | O=C(O)CCCN(Cc1ccc(Cl)c(Cl)c1)Cc1ccc(Cl)c(Cl)c1 [Example 10, 4-[N,N-Bis-(3,4-dichlorobenzyl)amino]butyric acid] | 7.5 | – | – | –
0% | 0 | – | – | COc1ccc(CN(CCCC(N)=O)Cc2ccc(OC)cc2)cc1 [Example 12, 4-[N,N-Bis-(4-Methoxybenzyl)amino]butyramide] | 6.0 | – | – | –
0% | 0 | – | – | CN(CCCC(N)=O)Cc1ccc(Cl)cc1 [Example 24, 4-[(N-(p-Chlorobenzyl)-N-methyl)amino]butyramide] | 7.5 | – | – | –
– | – | – | – | NC(=O)CCC/N=C(\c1ccc(Cl)cc1)c1cc(F)ccc1O [Progabide, reference compound] | – | – | – | active
– | – | little or no activity | little or no activity | CCCC/N=C(/c1cc(Cl)ccc1O)c1ccccc1Cl [fengabine, reference compound] | 8.0 | – | – | –
